The values below come from patent US20170065730A1, “COMPOSITION FOR IMAGING ATHEROSCLEROSIS AND METHOD FOR DIAGNOSING ATHEROSCLEROSIS BY USING SAME” (priority 2014, published 2017).

The experiment concerns atherosclerotic site of the aorta. As to the kind of experiment: Fluorescence imaging of aorta sections after ear vein injection of RITC-MSA or RITC. Type of experiment: in vivo. Conditions: cholesterol diet rabbit, 10 minutes after ear vein injection. How it is done:
Ten 12-week-old normal rabbits (New Zealand White rabbits) were used for experiment. They were randomly divided into two groups of 5 rabbits. One group was given a normal diet and the other group was given a diet containing 1% cholesterol. The animals were kept under a standardized condition (21° C., 41-62% humidity) with regular light/dark (10/14 hr) cycles and were given free access to water and feed. 3 months later, after intravenously injecting 1 mCi of ^68Ga-MSA under anesthesia, positron emission tomography was performed on the whole body for 10 minutes from 10 minutes after the injection (FIGS. 5 and 6). On the next day, the rabbits were anesthetized and RITC-MSA (42 μg/0.1 mL) or RITC mixed in 0.9% physiological saline was injected into the ear vein of the rabbits. 10 minutes later, the rabbits were euthanized and the aorta was cut and kept at −20° C. The aorta sections were fixed at room temperature for 30 minutes in a 4% (v/v) buffered formalin solution, washed with cold PBS (pH 7.4), embedded in optimum cutting temperature compound (OCT, Sakura, Tokyo) and kept at −80° C. after a day for tissue penetration. Tissue slices cut to a thickness of […] were mounted on slides together with poly-D-lysine and then kept at room temperature until use after drying at 45° C. in the shade. […]

rhodamine B isothiocyanate [RITC]: the “fluorescence / binding at the atherosclerotic site of the aorta” value is on record as “cannot be observed”.
